Experimental data as given in US20230399287A1, “NOVEL COMPOUNDS” (Sitryx Therapeutics Limited, priority 2020, published 2023).

How the values were obtained:
[1] = Hepatocyte stability assay (human); assay type: in vitro ADME; settings: human, cryopreserved hepatocytes, 10 μM compound, 60 min, read-out: T½
From the text: (§1) Defrosted cryo-preserved hepatocytes (viability>70%) were used to determine the metabolic stability of a compound via calculation of intrinsic clearance (Clint; a measure of the removal of a compound from the liver in the absence of blood flow and cell binding). Clearance data are particularly important for in vitro work as they can be used in combination with in vivo data to predict the half-life and oral bioavailability of a drug.
(§2) The metabolic stability in hepatocytes assay involved a time-dependent reaction using both positive and negative controls. The cells must be pre-incubated at 37° C. then spiked with test compound (and positive control); samples taken at pre-determined time intervals were analysed to monitor the change in concentration of the initial drug compound over 60 minutes. A buffer incubation reaction (with no hepatocytes present) acted as a negative control and two cocktail solutions, containing compounds with known high and low clearance values (verapamil/7-hydroxycoumarin and propranolol/diltiazem), acted as positive controls. • 1. The assay was run with a cell concentration of 0.5×10^6 cells/mL in Leibovitz buffer. • 2. All compounds and controls were run in duplicate. • 3. Compound concentration was 10 μM. • 4. All compounds and controls were incubated with both cells and buffer to show turnover is due to hepatic metabolism. • 5. All wells on the incubation plate had 326.7 μL of either cells or buffer added. • 6. Prior to assay, cell and buffer-only incubation plates were preincubated for 10 mins at 37° C. • 7. The assay was initiated by adding compounds, 3.3 μL of 1 mM in 10% DMSO-90% Buffer; final DMSO concentration is 0.1%. • 8. Samples were taken at regular timepoints (0, 5, 10, 20, 40, 60 min) until 60 mins. • 9. Sample volume was 40 μL and added to 160 μL of crash solvent (acetonitrile with internal standard) and stored on ice. • 10. At the end of the assay, the crash plates were centrifuged at 3500 rpm for 20 mins at 4° C. • 11. 80 μL of clear supernatant was removed and mixed with 80 μL of deionised water before being analysed by LC-MS/MS.
(§3) Raw LC-MS/MS data were exported to, and analysed in, Microsoft Excel for determination of intrinsic clearance. The percentage remaining of a compound was monitored using the peak area of the initial concentration as 100%. Intrinsic clearance and half-life values were calculated using a graph of the natural log of percentage remaining versus the time of reaction in minutes. Half-life (min) and intrinsic clearance (Clint in μL min^−1 10^−6 cells) values were calculated using the gradient of the graph (the elimination rate constant, k) and Equations 1 and 2.

hepatocytes [2] = assay: Hepatocyte stability assay (human); assay type: in vitro ADME; settings: 10 μM compound, 60 min
From the text: as §1, §2, §3

IL-6 = assay: THP-1 AlphaLISA IL-6 cytokine assay; assay type: cell-based; settings: Homo sapiens, THP-1, differentiated THP-1 cells, LPS 24 hr then Nigericin 1 hour
Description: (§4) Measuring Inhibitory Effects on IL-1V and IL-6 Cytokine Output from THP-1s
(§5) The cytokine inhibition profiles of compounds of formula (I) were determined in a differentiated THP-1 cell assay. All assays were performed in RPMI-1640 growth medium (Gibco), supplemented with 10% fetal bovine serum (FBS; Gibco), 1% penicillin-streptomycin and 1% sodium pyruvate unless specified otherwise. The IL-1β and IL-6 cytokine inhibition assays were run in a background of differentiated THP-1 cells as described below. All reagents described were from Sigma-Aldrich unless specified otherwise. Compounds were prepared as 10 mM DMSO stocks.
(§6) THP-1 cells were expanded as a suspension up to 80% confluence in appropriate growth medium. Cells were harvested, suspended, and treated with an appropriate concentration of phorbol 12-myristate 13-acetate (PMA) over a 72 hr period (37° C./5% CO2).
(§7) Following 72 hrs of THP-1 cell incubation, cellular medium was removed and replaced with fresh growth media containing 1% of FBS. Working concentrations of compounds were prepared separately in 10% FBS treated growth medium and pre-incubated with the cells for 30 minutes (37° C./5% CO2). Following the 30 minute compound pre-incubation, THP-1s were treated with an appropriate concentration of LPS and the THP-1s were subsequently incubated for a 24 hr period (37° C./5% CO2). An appropriate final concentration of Nigericin was then dispensed into the THP-1 plates and incubated for 1 hour (37° C./5% CO2) before THP-1 supernatants were harvested and collected in separate polypropylene 96-well holding plates.
(§8) Reagents from each of the IL-1β and IL-6 commercial kits (Perkin Elmer) were prepared and run according to the manufacturer's instructions. Subsequently, fluorescence signal detection in a microplate reader was measured (EnVision® Multilabel Reader, Perkin Elmer).
(§9) Percentage inhibition was calculated per cytokine by normalising the sample data to the high and low controls used within each plate (+/−LPS respectively). Percentage inhibition was then plotted against compound concentration and the 50% inhibitory concentration ([…]) was determined from the resultant concentration-response curve.

[3] = Hepatocyte stability assay (mouse); assay type: in vitro ADME; settings: mouse, cryopreserved hepatocytes, 10 μM compound, 60 min, read-out: T½
From the text: as §1, §2, §3

hepatocytes [4] = assay: Hepatocyte stability assay (mouse); assay type: in vitro ADME; settings: 10 μM compound, 60 min
From the text: as §1, §2, §3

IL-1β = assay: THP-1 AlphaLISA IL-1β cytokine assay; assay type: cell-based; settings: Homo sapiens, THP-1, differentiated THP-1 cells
Description: as §4, §5, §6, §7, §8, §9

[5] = LPS 24 hr then Nigericin 1 hour

Row | SMILES | half-life at 10 μM [1] [h] | Clint (hepatocytes [2]) [μL min^−1 10^−6 cells] | IC50 (IL-6) [µM] | half-life at 10 μM [3] [h] | Clint (hepatocytes [4]) [μL min^−1 10^−6 cells] | IC50 (IL-1β; [5]) [µM] | IC50 (IL-1β; data from repeated experiments) [µM]
1 | C=C(CC(=O)OC1(c2ccc(C(F)F)cc2)CCC1)C(=O)O [Example 20, 4-(1-(4-(difluoromethyl)phenyl)cyclobutoxy)-2-methylene-4-oxobutanoic acid] | 7.45 | 4 | 48.7 | 2.33 | 13 | 3 | –
2 | C=C(C(=O)O)C(C)(C)C(=O)OC1(c2ccc(C(F)(F)F)cn2)CCC1 [Example 59, 3,3-dimethyl-2-methylene-4-oxo-4-(1-(5-(trifluoromethyl)pyridin-2-yl)cyclobutoxy)butanoic acid] | 2.3 | 11 | > 31.6 | > 7.67 | <3 | 2.9 | –
3 | C=C(C(=O)O)C(C)(C)C(=O)OC1(c2ccc(C(F)(F)F)cc2)CCC1 [Example 30, 3,3-dimethyl-2-methylene-4-oxo-4-(1-(4-(trifluoromethyl)phenyl)cyclobutoxy) butanoic acid] | 0.617 | 41 | > 100 | 0.25 | 104 | 1.2 | –
4 | C=C(CC(=O)OC1(c2ccc(Cl)cn2)CCC1)C(=O)O [Example 51, 4-(1-(5-chloropyridin-2-yl)cyclobutoxy)-2-methylene-4-oxobutanoic acid] | > 7.67 | <3 | > 31.6 | > 7.67 | <3 | 6.4 | –
5 | C=C(CC(=O)OC1(c2ccc(Br)cc2)CCC1)C(=O)O [Example 5, 4-(1-(4-bromophenyl)cyclobutoxy)-2-methylene-4-oxobutanoic acid] | 1.48 | 15 | > 31.6 | 1.13 | 25 | 0.7 | –
6 | C=C(CC(=O)OC(C)(C)c1ccc(C(F)(F)F)cn1)C(=O)O [Example 57, 2-methylene-4-oxo-4-((2-(5-(trifluoromethyl)pyridin-2-yl)propan-2-yl)oxy)butanoic acid] | > 7.67 | <3 | > 31.6 | 2.52 | 10 | 6.6 | –
7 | C=C(CC(=O)O[C@]1(c2ccc(C(F)(F)F)cc2)C[C@H](C)C1)C(=O)O [Example 45, (cis)-4-(3-methyl-1-(4-(trifluoromethyl)phenyl)cyclobutoxy)-2-methylene-4-oxobutanoic acid] | > 7.67 | <3 | > 100 | 2.6 | 8 | 3.4 | –
8 | C=C(CC(=O)OC1(c2ccc(C(F)(F)F)cn2)CCC1)C(=O)O [Example 27, 2-methylene-4-oxo-4-(1-(5-(trifluoromethyl)pyridin-2-yl)cyclobutoxy)butanoic acid] | > 7.67 | <3 | > 100 | > 7.67 | <3 | 1.4 | 4
9 | C=C(CC(=O)OC1(c2ccc(C(F)(F)F)s2)CCC1)C(=O)O [Example 32, 2-methylene-4-oxo-4-(1-(5-(trifluoromethyl)thiophen-2-yl)cyclobutoxy)butanoic acid] | 1.53 | 17 | > 100 | 1.27 | 21 | 5.2 | –
10 | C=C(CC(=O)OC1(c2ccc(C(F)(F)F)cc2)CC2(CCC2)C1)C(=O)O [Example 35, 2-methylene-4-oxo-4-((2-(4-(trifluoromethyl)phenyl)spiro[3.3]heptan-2-yl)oxy)butanoic acid] | 1.43 | 14 | > 31.6 | 0.5 | 73 | 8.8 | –
11 | C=C(CC(=O)OC1(c2ccc(C(F)(F)F)cc2)CC(F)(F)C1)C(=O)O [Example 29, 4-(3,3-difluoro-1-(4-(trifluoromethyl)phenyl)cyclobutoxy)-2-methylene-4-oxobutanoic acid] | 2.38 | 11 | > 100 | 1.32 | 20 | 1.3 | –
12 | C=C(CC(=O)OC1(c2ccc(C(F)(F)F)cc2)COC1)C(=O)O [Example 24, 2-methylene-4-oxo-4-((3-(4-(trifluoromethyl)phenyl)oxetan-3-yl)oxy)butanoic acid] | > 7.67 | <3 | > 100 | 2.42 | 11 | 1.4 | –
13 | C=C(CC(=O)OC1(c2ccc(C(C)(F)F)cc2)CCC1)C(=O)O [Example 19, 4-(1-(4-(1,1-difluoroethyl)phenyl)cyclobutoxy)-2-methylene-4-oxobutanoic acid] | 7.45 | 4 | > 68.1 | 1.35 | 23 | 1.2 | –
14 | C=C(CC(=O)OC1(c2ccc(C(F)(F)F)c(F)c2)CCC1)C(=O)O [Example 17, 4-(1-(3-fluoro-4-(trifluoromethyl)phenyl)cyclobutoxy)-2-methylene-4-oxobutanoic acid] | 2.62 | 11 | > 31.6 | 3.53 | 9 | 2 | –
15 | C=C(CC(=O)O[C@]1(c2ccc(C(F)(F)F)cc2)C[C@H](C#N)C1)C(=O)O [Example 41, 4-((cis)-3-cyano-1-(4-(trifluoromethyl)phenyl)cyclobutoxy)-2-methylene-4-oxobutanoic acid] | > 7.67 | <3 | > 31.6 | 4.87 | 8 | 2.1 | –
16 | C=C(CC(=O)OC1(c2ccc(C(F)(F)C(F)(F)F)cc2)CCC1)C(=O)O [Example 31, 2-methylene-4-oxo-4-(1-(4-(perfluoroethyl)phenyl)cyclobutoxy)butanoic acid] | 2.33 | 11 | > 100 | 0.7 | 38 | 3.4 | –
